Tested on: oxaliplatin-induced allodynia model rats
Test: Von Frey test in oxaliplatin-induced allodynia model rats
Type: in vivo, rat
Details: OXA 4 mg/kg i.p. 8 doses, prophylactic, FIG. 1
Experimental: Six to eight-week-old male SD rats (from 200 to 400 g) were used, and oxaliplatin (hereinafter may be abbreviated as OXA) was administered into the peritoneal cavity of rats at a dose of 4 mg/kg. A total of eight doses were given with a regimen of twice weekly for four weeks (Days 1, 2, 7, 8, 13, 14, 19, and 20). A solvent for OXA, i.e., a 5% glucose solution, was similarly administered to a control group. Elplat I.V. Infusion Solution 100 mg (Yakult Honsha Co., Ltd.) was used as OXA.
Laboratory animals were divided into five groups: a control group, an OXA administration group, and groups each receiving administration of OXA and PC-SOD 0.1, 0.3, or 1 mg/kg (OXA+PC-SOD administration groups) (n=8 per group). In an experiment of prevention, PC-SOD was administered into the caudal vein from 5 to 15 minutes after administration of OXA in the OXA+PC-SOD administration group. […]
Data were expressed with mean±standard error (SEM). Statistical processing of the results was performed by Student's t test for comparison of two groups and ANOVA one way test (post-hoc Tukey's test) for comparison of three or more groups, and a statistically significant difference was determined when the hazard ratio was 5% or lower (*, **, and *** in the figures: p<0.05, p<0.01, and p<0.001, respectively).

For “lecithinized superoxide dismutase [PC-SOD]”, the “decrease in pain sensation threshold caused by OXA (von Frey test)” value (PC-SOD 1 mg/kg caudal vein) was “significantly suppressed” and the “decrease in pain sensation threshold caused by OXA (von Frey test)” value (PC-SOD 0.1, 0.3 and 1 mg/kg caudal vein) was “suppressed by PC-SOD in a concentration-dependent manner”.

Source: patent US20240261375A1, “PHARMACEUTICAL COMPOSITION FOR TREATING OR PREVENTING DISORDER ASSOCIATED WITH ADMINISTRATION OF ANTICANCER AGENT” (LTT BIO-PHARMA CO., LTD., priority 2021, published 2024)
